Measured values reported in patent US20190337971A1, “PANTETHEINE DERIVATIVES FOR THE TREATMENT OF NEUROLOGIC DISORDERS” (Retrophin, Inc., priority 2016, published 2019).
Read-outs that look alike come from different tables or passages of the source.

Key:
[1] = Stability of compounds in mouse hepatocytes; assay type: in vitro ADME; settings: cryopreserved mouse hepatocytes in suspension, 37° C., 0-240 min
Method: Stability in hepatocytes for select compounds disclosed in the application was evaluated in two species (mouse and human) according to the following procedure. Compounds and positive control samples were dissolved in 100% DMSO at 5 mM. Cryopreserved hepatocytes were thawed and resuspended in Hepatocyte Basal Medium (HBM-Lonza CC-3199) supplemented with CC-4182 (complete hepatocyte culture medium). Test compounds were diluted into cell suspension (1 million cells/ml) from the stock solutions to have a test compound concentration of 5 μM (0.1% DMSO). Incubation was performed in 24-well plates, at 37° C. in a DUBNOFF water bath, under low shaking. Each compound was tested at 6 time points, in duplicates (0, 15, 30, 60, 120, and 240 min). At each time point, an aliquot of 120 μl was taken and transferred to a 96-well deep plate. The reaction was stopped with the addition of one volume of 100% acetonitrile plus 0.1% formic acid and the appropriate internal standard. Samples then were centrifuged at 1100×g for 30 min at +4° C. and supernatants were transferred to a new 96-deepwell plate. Samples were evaporated under N2 and reconstituted in H2O/ACN 0.1% formic Acid (98:2). Analysis was performed without a calibration curve (Acquity UPLC-Waters; Sciex API4000). Time 0 was obtained adding acetonitrile before addition of the test compound. Stability was determined based on analysis of disappearance of the compounds as a function of incubation time. Quantification of test compounds was measured as a peak area relative to an internal standard. The elimination constant, k, is calculated by plotting mean disappearance values on a semi-logarithmic scale and fitting with a best fit linear regression. The half-life (t1/2) expressed in hours was derived using Equation 1:
t1/2=ln 2/(−k). Equation 1: […]

[2] = Permeability in a porcine brain endothelial cell model of the blood-brain barrier; assay type: in vitro ADME; settings: pig, luminal (apical) to basal, PBECs/As
Text: Compounds disclosed herein show the potential to reach mammalian brain by crossing the blood-brain barrier (BBB) from systemic circulation. […] The porcine brain endothelial cell permeability assay is an in vitro BBB model to be used for the prediction of central nervous system (CNS) drug permeability in vivo and for ranking or prioritization of compounds according to their permeability. This system can also be used for mechanistic studies and drug delivery strategies via receptor-mediated transport (transcytosis). The system is a two-dimensional co-culture, non-contact model of two types of primary cells: primary brain endothelial cells obtained from fresh porcine brains, and primary rat astrocytes, obtained from neonatal rats (PBECs/As). This ensures barrier formation and functional expression of key transporters.
The endothelial cells were cultured on rat-tail collagen type I and human fibronectin coated Transwell polycarbonate inserts (surface area 0.7 cm^2; pore size 0.4 μm) and the inserts were placed in 24-well plates containing confluent rat astrocytes. This system allows for the formation of a differentiated BBB model suitable for compound permeability in 10 days.
On the day of the experiment, culture medium was removed and cells were pre-incubated for 30 min with HBSS containing 20 mM Hepes pH 7.4 and 0.1% BSA. Donor volume (apical) was 400 μl and receiver volume (basal) 900 μl. Compounds were diluted in assay medium (at the desired concentration) and added to the luminal side (to mimic blood to brain passage). Transport was measured usually after 60 min by detecting the amount of compound from the basal (brain side). The integrity of the cell layers was assessed by measuring the transendothelial electrical resistance (TEER) and by monitoring FITC-dextran (40 KDa) permeation. Inserts with TEER values>500 Ω/cm^2 were selected for permeability studies. […] Fluorescence was measured using a fluorimetric detector. Radioactivity was measured by scintillation counting. […] After reconstitution, samples were analyzed by LC-MS/MS. Mass balance was determined considering the amount of compound recovered in the donor and receiver chamber at the end of the assay relative to the amount added to the donor chamber at time 0.
Permeability was defined as the apparent permeability coefficient (Papp), which is a measure of the appearance rate of the compound in the receiver chamber, expressed in cm/s. Papp is calculated according the following equation: […]
To correct for the contribution of filter and substrate, Papp was also determined for the cell-free system. Permeability of the endothelial cell layer was determined using the following equation: […]

[3] = Diastereoisomer A (upfield shift in 31P NMR), read-out: t1/2 (h) Mouse Hepatocytes Diastereoisomer A (converted)
[4] = Diastereoisomer B, read-out: t1/2 (h) Mouse Hepatocytes Diastereoisomer B
[5] = pH 7.4, Diastereoisomer A (upfield shift in 31P NMR), read-out: Papp Diastereoisomer A
[6] = pH 7.4, Diastereoisomer B, read-out: Papp Diastereoisomer B

Row | half-life at 5 μM [1, 3] | half-life at 5 μM [1, 4] | Papp A→B at 60 min [2, 5] | Papp A→B at 60 min [2, 6] | SMILES
1 | 0.31 h | < 0.25 h | 3.17 ×10⁻⁶ cm/s | 3.18 ×10⁻⁶ cm/s | CC(=O)SCCNC(=O)CCNC(=O)[C@@H]1OP(=O)(OCOC(=O)c2scnc2C)OCC1(C)C (stereo partly drawn) [R1006, (((4R)-4-((3-((2-(acetylthio)ethyl)amino)-3-oxopropyl)carbamoyl)-5,5-dimethyl-2-oxido-1,3,2-dioxaphosphinan-2-yl)oxy)methyl 4-methylthiazole-5-carboxylate]
2 | < 0.25 h | < 0.25 h | 3.1 ×10⁻⁶ cm/s | 3.6 ×10⁻⁶ cm/s | CC(=O)SCCNC(=O)CCNC(=O)[C@@H]1OP(=O)(OCOC(=O)c2cc(C)nn2C)OCC1(C)C (stereo partly drawn) [R1007, (((4R)-4-((3-((2-(acetylthio)ethyl)amino)-3-oxopropyl)carbamoyl)-5,5-dimethyl-2-oxido-1,3,2-dioxaphosphinan-2-yl)oxy)methyl 1,3-dimethyl-1H-pyrazole-5-carboxylate]
